Usually IC50 stands for the point on the concentration scale where inhibition reaches its midpoint.

This note sets out measurements from US9718780B2, “Substituted pyridines as sodium channel blockers” (priority 2012, dated 2017).

Chain of human Nav1.7 (Q15858 with tags, fused parts or gaps limits assumed): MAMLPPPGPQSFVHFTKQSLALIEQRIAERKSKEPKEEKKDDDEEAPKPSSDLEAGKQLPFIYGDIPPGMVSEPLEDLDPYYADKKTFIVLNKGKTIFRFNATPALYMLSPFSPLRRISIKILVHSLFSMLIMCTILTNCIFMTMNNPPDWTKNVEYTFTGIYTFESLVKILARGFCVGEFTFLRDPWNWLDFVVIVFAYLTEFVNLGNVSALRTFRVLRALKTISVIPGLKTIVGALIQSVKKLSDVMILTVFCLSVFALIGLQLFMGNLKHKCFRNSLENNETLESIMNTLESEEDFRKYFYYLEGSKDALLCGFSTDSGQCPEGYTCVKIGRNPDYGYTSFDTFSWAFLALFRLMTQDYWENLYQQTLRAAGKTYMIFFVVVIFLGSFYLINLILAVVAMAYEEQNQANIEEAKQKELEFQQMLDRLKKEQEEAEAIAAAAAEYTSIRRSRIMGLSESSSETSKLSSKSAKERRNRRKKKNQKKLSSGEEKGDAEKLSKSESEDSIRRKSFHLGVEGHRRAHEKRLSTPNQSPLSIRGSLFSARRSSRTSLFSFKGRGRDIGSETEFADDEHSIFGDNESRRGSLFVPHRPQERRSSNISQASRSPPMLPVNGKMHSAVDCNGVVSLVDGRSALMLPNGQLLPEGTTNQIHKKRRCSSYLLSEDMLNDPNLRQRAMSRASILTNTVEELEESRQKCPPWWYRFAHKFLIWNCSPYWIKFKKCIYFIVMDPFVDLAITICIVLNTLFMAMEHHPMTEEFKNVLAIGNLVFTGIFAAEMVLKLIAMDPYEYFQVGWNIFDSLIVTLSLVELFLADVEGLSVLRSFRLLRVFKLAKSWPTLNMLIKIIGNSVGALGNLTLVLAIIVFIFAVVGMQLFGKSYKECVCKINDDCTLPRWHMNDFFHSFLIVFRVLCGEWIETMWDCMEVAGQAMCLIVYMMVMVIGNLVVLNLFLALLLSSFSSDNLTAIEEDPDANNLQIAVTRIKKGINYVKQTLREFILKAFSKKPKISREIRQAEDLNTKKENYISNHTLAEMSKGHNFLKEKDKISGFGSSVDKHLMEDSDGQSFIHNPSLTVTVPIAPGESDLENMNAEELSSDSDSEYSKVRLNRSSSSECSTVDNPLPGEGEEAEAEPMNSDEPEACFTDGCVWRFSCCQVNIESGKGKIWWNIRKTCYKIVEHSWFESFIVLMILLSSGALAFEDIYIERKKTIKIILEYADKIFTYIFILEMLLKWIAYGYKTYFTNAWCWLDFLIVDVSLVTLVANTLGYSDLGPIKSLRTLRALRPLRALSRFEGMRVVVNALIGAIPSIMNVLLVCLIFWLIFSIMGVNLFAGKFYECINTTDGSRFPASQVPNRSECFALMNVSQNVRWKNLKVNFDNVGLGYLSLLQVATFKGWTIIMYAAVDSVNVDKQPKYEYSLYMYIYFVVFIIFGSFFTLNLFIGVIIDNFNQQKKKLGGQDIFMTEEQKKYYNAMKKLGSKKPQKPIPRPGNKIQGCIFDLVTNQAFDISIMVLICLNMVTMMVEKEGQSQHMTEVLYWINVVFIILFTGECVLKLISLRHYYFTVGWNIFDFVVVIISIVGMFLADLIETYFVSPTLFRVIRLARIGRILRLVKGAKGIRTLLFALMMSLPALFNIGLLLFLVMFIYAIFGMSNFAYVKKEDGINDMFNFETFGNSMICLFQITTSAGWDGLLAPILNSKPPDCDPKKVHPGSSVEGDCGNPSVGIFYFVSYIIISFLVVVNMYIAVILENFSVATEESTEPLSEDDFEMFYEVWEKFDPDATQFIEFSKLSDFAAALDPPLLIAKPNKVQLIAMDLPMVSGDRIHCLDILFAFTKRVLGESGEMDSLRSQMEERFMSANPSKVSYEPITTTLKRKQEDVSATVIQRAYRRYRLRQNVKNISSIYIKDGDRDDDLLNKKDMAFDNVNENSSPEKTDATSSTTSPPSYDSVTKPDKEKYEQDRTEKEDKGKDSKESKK

The experiment addresses human Nav1.7 (Homo sapiens (Human), UniProt Q15858). The experiment in a line: FLIPR or FLIPR TETRA sodium dye assay with KCl and test article pre-incubation. Type of experiment: cell-based. The conditions noted are these: read-out: Nav1.7 Activity (μM) FLIPR assay IC50 (μM) ± SEM.
Take `O=C(c1cccc(-c2ccc(Oc3ccc(F)cc3)cc2)n1)[C@H](O)CO` [Compound 1, (R)-1-(6-(4-(4-fluorophenoxy)phenyl)pyridin-2-yl)-2,3-dihydroxypropan-1-one]: the IC50 worked out at 0.133 ± 0.005 µM.

As to `N#Cc1cc(Oc2ccc(-c3cccc(C(=O)[C@H](O)CO)n3)cc2)ccc1C(F)(F)F` [Compound 3, (R)-5-(4-(6-(2,3-dihydroxypropanoyl)pyridin-2-yl)phenoxy)-2-(trifluoromethyl)benzonitrile], the IC50 worked out at 0.402 ± 0.096 µM.

As to `O=C(c1cccc(-c2ccc(Oc3ccc(C(F)(F)F)cc3)cc2)n1)[C@H](O)CO` [Compound 4, (R)-2,3-dihydroxy-1-(6-(4-(4-(trifluoromethyl)phenoxy)phenyl)pyridin-2-yl)propan-1-one], the IC50 stood at 0.136 ± 0.016 µM.

For `N#Cc1ccc(Oc2ccc(-c3cccc(C(=O)[C@H](O)CO)n3)cc2)cc1` [Compound 5, (R)-4-(4-(6-(2,3-dihydroxypropanoyl)pyridin-2-yl)phenoxy)benzonitrile], the IC50 stood at 0.149 ± 0.023 µM.

Turning to `N#Cc1ccc(Oc2ccc(-c3cccc(C(=O)[C@H](O)CO)n3)cc2)cc1C(F)(F)F` [Compound 2, (R)-4-(4-(6-(2,3-dihydroxypropanoyl)pyridin-2-yl)phenoxy)-2-(trifluoromethyl)benzonitrile], the IC50 was determined as 0.365 ± 0.065 µM.

Turning to `N#Cc1cc(Oc2ccc(-c3cccc(C(O)C(N)=O)n3)cc2)ccc1C(F)(F)F` (stereo not drawn) [Compound 6, 2-(6-(4-(3-cyano-4-(trifluoromethyl)phenoxy)phenyl)pyridin-2-yl)-2-hydroxyacetamide], the IC50 came out at 0.722 ± 0.053 µM.
